Experimental data as given in US12624050B2, “Three fused ring derivative-containing salt or crystal form and pharmaceutical composition thereof” (Shanghai Hansoh Biomedical Co., Ltd., priority 2019, dated 2026).

Assay: Screening of salts of the compound with counter ion acids
Format: physicochemical
Details: for Results (salt screening): acetone 0.2 mL, solid-liquid reaction, room temperature; for Results (salt screening) / Post-treatment (salt screening): base:acid=1:1.2; for Experimental results (salt screening): natural evaporation at room temperature; for Post-treatment (salt screening): suspended in 0.2 mL of methanol at 50° C.
Experimental: 300 mg of free base was weighed, 15 mL of THE was added, and the mixture was heated to 50° C. to dissolve completely. The solution of the free base in THE was divided into […], and a certain amount of acid was added to each part (molar reaction ratio of base:acid=1:1.2), detailed as follows:
20 mg of free base was weighed, 0.2 mL of acetone was added, and the mixture was stirred and suspended at room temperature. Acid (molar reaction ratio of base:acid=1:1.2) was added to the suspension system for reaction, detailed as follows: […]
20 mg of free base was weighed, 0.2 mL of methanol was added, and the mixture was stirred and suspended at 50° C. Acid (molar reaction ratio of base:acid=1:1.2) was added to the suspension system for reaction, detailed as follows:
THF was used as solvent in No. 1 to 10, and the free base was dissolved in THE to form a clear solution and then acid was added. Ethanol was used as solvent in No. 11 to 14, the free base was suspended in ethanol, and a clear solution formed after adding an acid. The clear solution formed in No. 1-14 was placed at room temperature without sealing the container to evaporate the solvent.

[1] = acid: 1M oxalic acid in ethanol
[2] = acid: 1M phosphoric acid in ethanol

SMILES: C[C@H](Nc1ccc2c(c1)OCCn1cc(N3C(=O)SC[C@H]3C(F)F)nc1-2)C(N)=O [Example 22, (S)-2-((2-((R)-4-(difluoromethyl)-2-oxothiazolidin-3-yl)-5,6-dihydrobenzo[f]imidazo[1,2-d][1,4]oxazepin-9-yl)amino)propionamide]
- Results (salt screening) (acid: 1M maleic acid in ethanol): No reaction, free base remained
- Results (salt screening) (acid: 1M methanesulfonic acid in ethanol): Mesylate was obtained
- Results (salt screening) [1]: No reaction, free base remained
- Results (salt screening) [2]: No reaction, free base remained
- Experimental results (salt screening) (THF as solvent, acid: Adipic acid): Oil formed
- Experimental results (salt screening) (THF as solvent, acid: Citric acid): Oil formed
- Experimental results (salt screening) (THF as solvent, acid: Fumaric acid): Oil formed
- Experimental results (salt screening) (THF as solvent, acid: Glycolic acid): Oil formed
- Experimental results (salt screening) (THF as solvent, acid: Maleic acid): Oil formed
- Experimental results (salt screening) (THF as solvent, acid: Malic acid): Oil formed
- Experimental results (salt screening) (THF as solvent, acid: Oxalic acid): Oil formed
- Experimental results (salt screening) (THF as solvent, acid: Phosphoric acid): Oil formed
- Experimental results (salt screening) (THF as solvent, acid: Succinic acid): Oil formed
- Experimental results (salt screening) (THF as solvent, acid: Tartaric acid): Oil formed
- Experimental results (salt screening) (ethanol as solvent, acid: Benzenesulfonic acid): Amorphous
- Experimental results (salt screening) (ethanol as solvent, acid: Hydrochloric acid): Amorphous
- Experimental results (salt screening) (ethanol as solvent, acid: Isethionic acid): Amorphous
- Experimental results (salt screening) (ethanol as solvent, acid: p-Toluenesulfonic acid): Amorphous
- Post-treatment (salt screening) (acid: 1M maleic acid in methanol): No reaction, free base remained
- Post-treatment (salt screening) [1]: No reaction, free base remained
- Post-treatment (salt screening) [2]: No reaction, free base remained
